Measured values reported in ChEMBL document CHEMBL5584309, “Discovery of Novel Mcl-1 Inhibitors with a 3-Substituted-1H-indole-1-yl Moiety Binding to the P1-P3 Pockets to Induce Apoptosis in Acute Myeloid Leukemia Cells” (J Med Chem, 2024).
Activity calls are given as the source filed them. No cut-off for these calls is given here.

Key:
[1] = Toxicity in NOD SCID mouse xenografted with human THP-1 cells assessed as change in body weight at 40 to 80 mg/kg, ip once daily after 10 days of tumor inoculation treated for 14 days relative to control; type: organism-based; details: in vivo, 336 h, dose 40-80 mg/kg, time 14 day
[2] = Toxicity in NOD SCID mouse assessed as change in heart tissue at 25 mg/kg, ip administered for 7 consecutive days by Hematoxylin-eosin (HE) staining based assay; type: organism-based; details: in vivo, 168 h, time 7 day
[3] = AUC (0 to t) in Sprague-Dawley rat at 20 mg/kg, ip measured upto 24 hrs by LC-MS/MS analysis; type: ADME, organism-based; details: in vivo
[4] = AUC (0 to t) in Sprague-Dawley rat at 5 mg/kg, iv measured upto 24 hrs by LC-MS/MS analysis; type: ADME, organism-based; details: in vivo
[5] = system: HL-60; experiment: In vivo antitumor activity against human HL-60 cells xenografted in female NOD SCID mouse assessed as reduction in tumor weight at 80 mg/kg, ip once daily after 15 days of tumor inoculation treated for 12 days; type: functional, organism-based; details: time 12.0 day
[6] = Toxicity in NOD SCID mouse xenografted with human THP-1 cells assessed as change in lung tissue at 40 to 80 mg/kg, ip once daily after 10 days of tumor inoculation treated for 14 days relative to control; type: organism-based; details: in vivo, 336 h, dose 40-80 mg/kg, time 14 day
[7] = Toxicity in NOD SCID mouse xenografted with human HL-60 cells assessed as change in lung tissue at 80 mg/kg, ip once daily after 15 days of tumor inoculation treated for 12 days; type: organism-based; details: in vivo, 288 h, time 12 day
[8] = system: THP-1; experiment: Induction of apoptosis in Noxa knockdown human THP-1 cells assessed as PARP cleavage at 20 uM measured after 24 hrs by […]; type: functional, cell-based
[9] = Toxicity in NOD SCID mouse xenografted with human THP-1 cells assessed as change in kidney tissue at 40 to 80 mg/kg, ip once daily after 10 days of tumor inoculation treated for 14 days relative to control; type: organism-based; details: in vivo, 336 h, dose 40-80 mg/kg, time 14 day
[10] = AUC (0 to infinity) in Sprague-Dawley rat at 20 mg/kg, ip measured upto 24 hrs by LC-MS/MS analysis; type: ADME, organism-based; details: in vivo
[11] = Cmax in Sprague-Dawley rat at 5 mg/kg, iv measured upto 24 hrs by LC-MS/MS analysis; type: ADME, organism-based; details: in vivo
[12] = Toxicity in NOD SCID mouse xenografted with human THP-1 cells assessed as change in spleen tissue at 40 to 80 mg/kg, ip once daily after 10 days of tumor inoculation treated for 14 days relative to control; type: organism-based; details: in vivo, 336 h, dose 40-80 mg/kg, time 14 day
[13] = system: HL-60; experiment: Induction of apoptosis in human HL-60 cells assessed as increase in Noxa measured after 24 hrs by Western blot analysis; type: functional, cell-based; details: dose 10-20 µM
[14] = Bioavailability in Sprague-Dawley rat at 20 mg/kg, ip measured upto 24 hrs by LC-MS/MS analysis; type: ADME, organism-based; details: in vivo
[15] = Half life in Sprague-Dawley rat at 20 mg/kg, ip measured upto 24 hrs by LC-MS/MS analysis; type: ADME, organism-based; details: in vivo
[16] = Tmax in Sprague-Dawley rat at 5 mg/kg, iv measured upto 24 hrs by LC-MS/MS analysis; type: ADME, organism-based; details: in vivo
[17] = Toxicity in NOD SCID mouse assessed as change in lung tissue at 25 mg/kg, ip administered for 7 consecutive days by Hematoxylin-eosin (HE) staining based assay; type: organism-based; details: in vivo, 168 h, time 7 day
[18] = Tmax in Sprague-Dawley rat at 20 mg/kg, ip measured upto 24 hrs by LC-MS/MS analysis; type: ADME, organism-based; details: in vivo
[19] = Toxicity in NOD SCID mouse xenografted with human HL-60 cells assessed as change in liver tissue at 80 mg/kg, ip once daily after 15 days of tumor inoculation treated for 12 days; type: organism-based; details: in vivo, 288 h, time 12 day
[20] = Toxicity in NOD SCID mouse xenografted with human HL-60 cells assessed as change in body weight at 80 mg/kg, ip once daily after 15 days of tumor inoculation treated for 12 days; type: organism-based; details: in vivo, 288 h, time 12 day
[21] = AUC (0 to infinity) in Sprague-Dawley rat at 5 mg/kg, iv measured upto 24 hrs by LC-MS/MS analysis; type: ADME, organism-based; details: in vivo
[22] = MRT (0 to infinity) in Sprague-Dawley rat at 5 mg/kg, iv measured upto 24 hrs by LC-MS/MS analysis; type: ADME, organism-based; details: in vivo
[23] = Half life in Sprague-Dawley rat at 5 mg/kg, iv measured upto 24 hrs by LC-MS/MS analysis; type: ADME, organism-based; details: in vivo
[24] = Cmax in Sprague-Dawley rat at 20 mg/kg, ip measured upto 24 hrs by LC-MS/MS analysis; type: ADME, organism-based; details: in vivo

Cc1cc(OCCCc2c(C(=O)O)n(CCN3CCOCC3)c3c(-c4ccccc4Cn4cc(CCN(CCN5CCOCC5)S(=O)(=O)c5ccc(F)cc5)c5ccccc54)cccc23)cc(C)c1Cl
Activity [1]: Non-Toxic
Activity [2]: Non-Toxic
AUC(0-t) at 24 h [3]: 54600 ng·h/mL
AUC(0-t) at 24 h [4]: 18700 ng·h/mL
Activity [5]: Active
Activity [6]: Non-Toxic
Activity [7]: Non-Toxic
Activity [8]: inactive
Activity [9]: Non-Toxic
AUC(0-inf) [10]: 55800 ng·h/mL
Cmax [11]: 46500 ng/mL
Activity [12]: Non-Toxic
Activity [13]: Dose-Dependent Effect
bioavailability [14]: 74%
half-life [15]: 4.1 h
Tmax [16]: 4.98 min
Activity [17]: Non-Toxic
Tmax [18]: 5.33 h
Activity [19]: Non-Toxic
Activity [20]: Non-Toxic
AUC(0-inf) [21]: 18800 ng·h/mL
MRT inf [22]: 1.3 h
half-life [23]: 4.9 h
Cmax [24]: 6240 ng/mL
